Laboratory results reported in PMC7702302, “Fragment-derived modulators of an industrial β-glucosidase” (Biochemical Journal, 2020).
Several values for one entry are separate records, joined by “and”; a condition that tells them apart may be missing. Equal entries are not always repeated. Where two headings read alike, the source gives them in different places.

What was measured:
TrBgl2 [1] = biological target: T1, TrBgl2 (Trichoderma reesei, UniProt O93785); experiment: Protein-observed NMR chemical shift perturbation (1H-15N TROSY); assay type: binding; conditions: compound 8 mM (8 also 16 mM), 15N TrBgl2 120 µM
Procedure: For backbone chemical shift perturbations (CSPs), each sample was prepared with 120 µM ^15N isotope-labelled TrBgl2 or E367Q TrBgl2, 8 mM or 16 mM of compound 8 or 10, 5 mM of MUG substrate and 100 µM DSS in 50 mM TRIS buffer containing 100 mM NaCl and 10% D2O at pH 8.0. The final DMSO concentration was usually not above 3.8%(v/v). ^1H-^15N TROSY spectra of the enzyme with DMSO in the buffer were collected as controls. ^1H-^15N TROSY spectra were collected by using a Bruker standard pulse sequence (trosyetf3gpsi) with 128 scans (NS), 1.5 s delay between the scans (d1), 35 ppm spectra width (SW), 256-time domain data size (TD) and 117 ppm irradiation carrier frequency offset (O1P).
For IVL methyl group CSPs, each sample was prepared with 250 µM of ^15N, ^13C, ^2H and IVL methyl group specifically labelled TrBgl2, 8 mM of compound 8, in 50 mM TRIS buffer containing 100 mM NaCl and 10% D2O at pH 8.0. The final DMSO concentration was usually not above 3.8% (v/v). ^1H-^13C HSQC spectra of the enzyme with DMSO in the buffer were collected as controls. ^1H-^13C HSQC spectra were recorded by using a Bruker standard pulse sequence (hsqcctetgpsp) with 8 scans (NS), 1.5 s delay between the scans (d1), 30 ppm spectra width (SW), 256-time domain data size (TD) and 15 ppm irradiation carrier frequency offset (O1P).

E367Q TrBgl2 = experiment: Thermal shift assay (TSA); assay type: binding, Trichoderma reesei
Procedure: Thermal shift screens were performed in 96-well polypropylene PCR plates (Agilent 401334) with a final volume 25 µL/well. […] Melting data were collected using an Agilent Stratagene Mx3005P rtPCR machine ramping from 25 to 95°C at 30 s per degree. Data were analysed with a combination of the Agilent MxPro software, MTS [16], JTSA (http://paulsbond.co.uk/jtsa) and the DSF analysis spreadsheet in Excel.

TrBgl2 [2] = biological target: T1, TrBgl2; experiment: STD NMR ligand-observed binding; conditions: compound 500 µM, TrBgl2 20 µM; for binding to TrBgl2 by STD NMR: absence of isofagomine; for binding to TrBgl2 by STD NMR in presence of isofagomine: isofagomine 40 µM
Procedure: The samples contained 20 µM unlabelled TrBgl2, fragments at a concentration of 500 µM per compound and 100 µM sodium trimethylsilylpropanesulfonate (DSS) in 50 mM phosphate buffer containing 25 mM NaCl and 5% D2O at pH 6.0. The experiments were recorded by using a Bruker standard pulse sequence (stddiffesgp.3 [19]). The on-resonance frequency was set to 0.25 ppm and off-resonance irradiation was applied at 40 ppm. STD NMR spectra were collected with a total of 16 scans (NS), 5 s delay between the scans (d1), a saturation time of 4 s (d20) and 1.5 s acquisition time (AQ).

TrBgl2 [3] = biological target: T1, TrBgl2; experiment: Michaelis-Menten and covariation kinetics with MUG; assay type: biochemical
Procedure: Apparent KM and kcat values were calculated from a Michaelis–Menten curve fit to 9-point substrate titrations at a constant concentration of compounds. The covariation experiments used the same range of substrate concentrations across an activator and inhibitor concentration range. The data obtained from these experiments was fit to the nonessential activator and mixed-model inhibition equation, respectively.

TrBgl2 [4] = biological target: T1, TrBgl2; experiment: MUG cleavage fluorescent kinetic assay (AC50 / Amax / IC50); assay type: biochemical
Procedure: A fluorescent kinetic assay was performed for library screening of TrBgl2 using 500 µM 4-methylumbelliferyl-β-D-glucopyranoside (MUG) in a total volume of 150 µL per well. Compounds dissolved in DMSO were added to each well to yield a final concentration from 1 to 2 mM. The reactions were performed in 160 mM phosphate–citrate buffer in pH 6.0, initiated by adding 20 µL of the enzyme to give a final concentration of 100 nM and were assayed at 40°C. The fluorescent 4-methylumbelliferyl release was recorded continuously at 355 nm excitation and 460 nm emission for 20 s using a BMG Labtech POLARstar OPTIMA plate reader. Control experiments were performed to evaluate the possibility of interference from the intrinsic fluorescence of compounds in the library by repeating the assay in the absence of the enzyme.
(§1) Assays were carried out in a 96 well plate (Black Nunc F96 MicroWell Plates) at 40 and 45°C for TrBgl2 and CcBglA, respectively, in 160 mM phosphate–citrate buffer in pH 6.0 and 2.5% DMSO. Reactions were initiated by the addition of 20 µL of protein to a final concentration of 100 nM, followed by 5 s of shaking. The fluorescent 4-methylumbelliferyl release was recorded continuously at 355 nm excitation and 460 nm emission for 20 s using a BMG Labtech POLARstar OPTIMA plate reader. Rates were calculated using GraphPad Prism 5.0 as the slope of the curve of the collected data. Corrections were made to the detected gradients to adjust for the inner filter effect of MUG and convert the gradients into units of µmol min^−1 according to a standard curve for MUG. The initial slopes were fitted to sigmoidal dose-response curves using GraphPad Prism 5.0 and the AC50 values extracted. Inhibition of TrBgl2 by isofagomine (IC50) was determined in similar manner to the AC50 values.

CcBglA = experiment: MUG cleavage assay on CcBglA (selectivity); assay type: biochemical, Clostridium cellulovorans; conditions: MUG 500 µM, titration 63 µM to 8 mM
Procedure: as §1

Solubility of compound = assay type: physicochemical
[5] = E367Q TrBgl2 in the presence of MUG (4 mM), compound 4 mM
[6] = apo E367Q TrBgl2, compound 4 mM, without MUG
[7] = titration of compound from 63 µM to 8 mM, substrate conc. 500 µM
[8] = pH 6, titration of compound from 30 µM to 3.8 mM, substrate conc. 500 µM, read-out: Amax
[9] = titration of compound from 30 µM to 3.8 mM, substrate conc. 500 µM
[10] = pH 6, titration of compound from 63 µM to 8 mM, substrate conc. 500 µM, read-out: Amax

T1 sequence (O93785 entry or part of it): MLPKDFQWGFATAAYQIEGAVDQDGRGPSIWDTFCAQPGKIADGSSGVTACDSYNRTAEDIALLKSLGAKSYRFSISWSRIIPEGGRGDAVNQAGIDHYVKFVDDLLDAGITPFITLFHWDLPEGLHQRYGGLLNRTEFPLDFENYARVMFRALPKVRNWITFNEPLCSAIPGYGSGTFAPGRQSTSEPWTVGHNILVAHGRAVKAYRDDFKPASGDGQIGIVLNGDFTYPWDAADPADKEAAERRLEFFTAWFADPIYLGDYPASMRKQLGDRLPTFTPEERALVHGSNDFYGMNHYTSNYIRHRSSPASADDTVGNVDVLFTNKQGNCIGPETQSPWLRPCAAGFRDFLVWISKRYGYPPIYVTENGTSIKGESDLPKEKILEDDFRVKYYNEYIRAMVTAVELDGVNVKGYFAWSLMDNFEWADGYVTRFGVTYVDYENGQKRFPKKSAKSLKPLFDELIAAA

SMILES | binding to TrBgl2 by STD NMR (TrBgl2 [2]) | binding to TrBgl2 by STD NMR in presence of isofagomine (TrBgl2 [2]) | Emax (TrBgl2 [4]; [8]) [%] | AC50 (TrBgl2 [4]; [9]) [µM] | Emax (TrBgl2 [4]; [10]) [%] | AC50 (TrBgl2 [4]; [7]) [µM] | also measured
S=C(Nc1ccc2nccnc2c1)N1CCOCC1 [Compound 10] | clear signal intensity | clear signal intensity |  |  |  |  | amide chemical shift changes on addition of compound (1H-15N TROSY) (TrBgl2 [1]): smaller but similar changes as seen for 8; decrease of Tm (E367Q TrBgl2; [5]): ~4 °C; decrease of Tm (E367Q TrBgl2; [6]): ~4 °C; α modifier (reversible mixed inhibition model) (TrBgl2 [3]; covariation fit, MUG substrate): 3.65; IC50 (TrBgl2 [4]; [7]): 312 ± 32 µM; inhibition (TrBgl2 [4]; titration of compound from 63 µM to 8 mM, substrate conc. 500 µM, read-out: Maximum inhibition): 96%; inhibition of CcBglA (CcBglA): inhibited both enzymes to a similar degree
Cc1cccc(C)c1NC(=S)NCCO [Compound 9] |  |  | 128 | > 4000 |  |  | 
OC[C@H]1CNC[C@@H](O)[C@@H]1O [isofagomine, reference compound] |  |  |  |  |  |  | IC50 (TrBgl2 [4]; inhibition of TrBgl2, MUG substrate): 0.53 ± 0.12 µM
S=C(Nc1ccccc1Cl)N1CCOCC1 [Compound 3] |  |  | 155 | > 4000 |  |  | 
Cc1ccc(C)c(NC(=S)N2CCOCC2)c1 [Compound 5] |  |  | 160 | > 4000 |  |  | 
Cc1cccc(C)c1NC(=S)N1CCOCC1 [Compound 1] | showed evidence of binding | binding was also observed |  |  |  |  | improvement in kcat/KM (TrBgl2 [3]; Michaelis-Menten analysis, MUG, in presence of 1 (3 mM) vs absence): approximately 2 fold; AC50 (TrBgl2 [4]; MUG substrate 500 μM): 1000 µM and ~1000 µM; Emax (TrBgl2 [4]; MUG substrate 500 μM, read-out: Amax (maximal activation obtained)): ~155%
CCN(CCO)C(=S)Nc1c(C)cccc1C [Compound 8] | clear signal intensity | clear signal intensity |  |  | ≤ 188 | > 4000 | amide chemical shift changes on addition of compound (1H-15N TROSY) (TrBgl2 [1]): indicating a specific binding event; increase of Tm (E367Q TrBgl2; [5]): ~1.2 °C; decrease of Tm (E367Q TrBgl2; [6]): ~1 °C; solubility (Solubility of compound): ≤ 16 mM; α modifier (nonessential activator model) (TrBgl2 [3]; covariation fit, MUG substrate): 0.64; β modifier (nonessential activator model, modifies kcat) (TrBgl2 [3]; covariation fit, MUG substrate): 1.5; enhancement of substrate affinity (TrBgl2 [3]; in the presence of activator): approximately 1.5 fold
Cc1ccccc1NC(=S)N1CCOCC1 [Compound 4] |  |  | 139 | 1810 ± 96 |  |  | 
Cc1cccc(C)c1NC(=S)N1CCCCC1CO (centres unmarked) [Compound 7] |  |  |  |  | 161 | 1530 ± 312 | 
COc1ccccc1NC(=S)N1CCOCC1 [Compound 6] |  |  |  |  | 143 | > 4000 | 
